From ChEMBL document CHEMBL4376821, “Recent Developments in Therapeutic Peptides for the Glucagon-like Peptide 1 and 2 Receptors” (J Med Chem, 2020)
Blank lines part the entries; values can stand above or below the compound they belong to. Non-standard residues stand in square brackets, D forms with d. Residues, ends and D or L forms follow the SMILES beside them. *: point of attachment. Palmitoyl = CCCCCCCCCCCCCCCC(=O)*; Nle = CCCC[C@H](N)C(=O)O

How the values were obtained:
[1] = Clearance in Sprague-Dawley rat at 0.2 mg/kg, iv; assay type: ADME, organism-based; settings: in vivo
[2] = Terminal half life in cynomolgus monkey at 0.25 mg/kg, sc; assay type: ADME, organism-based, Macaca fascicularis; settings: in vivo, read-out: beta t1/2
[3] = Half-life in Yucatan mini-pig at 0.15 mg, sc; assay type: ADME, Sus scrofa domesticus; settings: in vivo
[4] = Half life in human plasma; assay type: ADME, cell-free
[5] = Half life in human plasma at 0.5 mg for 4 weeks followed by 0.5 mg for 4 weeks and subsequently 1 mg for weeks administered subcutaneously once weekly and measured up to 840 hrs post last dose by LC-MS/MS analysis; assay type: ADME; settings: sc
[6] = target: Glucagon-like peptide 1 receptor (Homo sapiens, UniProt P43220); assay: Agonist activity at human GLP-1 receptor expressed in CHO-K1 cells assessed as cAMP induction by FRET assay; assay type: functional, cell-based
Glucagon-like peptide 1 receptor, sequence (P43220 whole entry): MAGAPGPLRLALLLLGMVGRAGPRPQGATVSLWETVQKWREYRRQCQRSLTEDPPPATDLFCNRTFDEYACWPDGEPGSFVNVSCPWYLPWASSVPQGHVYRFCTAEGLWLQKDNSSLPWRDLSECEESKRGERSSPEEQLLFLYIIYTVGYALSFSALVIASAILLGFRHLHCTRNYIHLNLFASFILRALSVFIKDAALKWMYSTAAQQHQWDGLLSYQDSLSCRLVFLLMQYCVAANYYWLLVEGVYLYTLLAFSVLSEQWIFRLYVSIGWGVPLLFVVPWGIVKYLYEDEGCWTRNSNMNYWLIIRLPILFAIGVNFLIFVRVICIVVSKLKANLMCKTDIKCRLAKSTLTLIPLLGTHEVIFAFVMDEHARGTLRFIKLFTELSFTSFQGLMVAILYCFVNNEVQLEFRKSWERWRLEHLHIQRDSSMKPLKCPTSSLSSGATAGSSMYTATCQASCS

[7] = target: T1, Glucagon-like peptide 2 receptor (Homo sapiens, UniProt O95838); assay: Agonist activity at human GLP-2 receptor expressed in CHO-K1 cells assessed as cAMP induction by FRET assay; assay type: functional, cell-based
T1 sequence (O95838 whole entry): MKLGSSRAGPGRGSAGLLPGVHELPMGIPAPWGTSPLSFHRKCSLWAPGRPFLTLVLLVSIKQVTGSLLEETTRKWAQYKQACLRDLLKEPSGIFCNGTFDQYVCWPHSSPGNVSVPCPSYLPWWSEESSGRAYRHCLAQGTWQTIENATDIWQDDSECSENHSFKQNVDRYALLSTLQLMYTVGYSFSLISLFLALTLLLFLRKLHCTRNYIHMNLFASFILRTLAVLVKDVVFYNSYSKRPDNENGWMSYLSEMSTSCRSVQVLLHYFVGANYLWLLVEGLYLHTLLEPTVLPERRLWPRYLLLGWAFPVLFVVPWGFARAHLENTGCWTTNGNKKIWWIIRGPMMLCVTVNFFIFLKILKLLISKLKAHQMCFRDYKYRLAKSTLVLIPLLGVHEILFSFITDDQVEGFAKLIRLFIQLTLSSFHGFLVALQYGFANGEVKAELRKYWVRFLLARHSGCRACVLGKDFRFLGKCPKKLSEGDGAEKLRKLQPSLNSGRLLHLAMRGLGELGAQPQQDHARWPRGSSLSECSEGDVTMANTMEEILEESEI

[8] = Half life in C57BL/6J mouse at 800 nmol/kg, sc measured up to 24 hrs by LC-MS/MS analysis; assay type: ADME, organism-based; settings: in vivo
[9] = Half life in human; assay type: ADME
Homo sapiens = organism: Homo sapiens; assay: Induction of plasma citrulline level in human; assay type: functional
[10] = Half life in human at 15 mg, sc qd measured on day 8 by liquid chromatography/tandem mass spectrometry method; assay type: ADME, organism-based; settings: in vivo

Compound: CC[C@H](C)[C@H](NC(=O)[C@H](Cc1ccccc1)NC(=O)[C@H](CCC(=O)O)NC(=O)[C@H](CCCCN)NC(=O)[C@H](C)NC(=O)[C@H](C)NC(=O)[C@H](CCC(N)=O)NC(=O)CNC(=O)[C@H](CCC(=O)O)NC(=O)[C@H](CC(C)C)NC(=O)[C@H](Cc1ccc(O)cc1)NC(=O)[C@H](CO)NC(=O)[C@H](CO)NC(=O)[C@@H](NC(=O)[C@H](CC(=O)O)NC(=O)[C@H](CO)NC(=O)[C@@H](NC(=O)[C@H](Cc1ccccc1)NC(=O)[C@@H](NC(=O)CNC(=O)[C@H](CCC(=O)O)NC(=O)[C@H](C)NC(=O)[C@@H](N)Cc1cnc[nH]1)[C@@H](C)O)[C@@H](C)O)C(C)C)C(=O)N[C@@H](C)C(=O)N[C@@H](Cc1c[nH]c2ccccc12)C(=O)N[C@@H](CC(C)C)C(=O)N[C@H](C(=O)N[C@@H](CCCCN)C(=O)NCC(=O)N[C@@H](CCCNC(=N)N)C(=O)O)C(C)C
- half-life [4]: < 2 min

Compound: CCCCCCCCCCCCCCCC(=O)NCCCC[C@H](NC(=O)[C@H](Cc1ccc(O)cc1)NC(=O)[C@@H](NC(=O)[C@H](CO)NC(=O)[C@H](CC(C)C)NC(=O)[C@H](CCC(=O)O)NC(=O)[C@H](CO)NC(=O)[C@@H](NC(=O)[C@H](Cc1ccccc1)NC(=O)[C@H](CO)NC(=O)CNC(=O)[C@H](CC(=O)O)NC(=O)CNC(=O)[C@@H](N)Cc1cnc[nH]1)[C@@H](C)O)[C@@H](C)O)C(=O)N[C@@H](CC(=O)O)C(=O)N[C@@H](C)C(=O)N[C@@H](CC(C)C)C(=O)N[C@@H](C)C(=O)N[C@@H](C)C(=O)N[C@@H](CCCNC(=N)N)C(=O)N[C@@H](CC(=O)O)C(=O)N[C@@H](Cc1ccccc1)C(=O)N[C@H](C(=O)N[C@@H](C)C(=O)N[C@@H](Cc1c[nH]c2ccccc12)C(=O)N[C@@H](CC(C)C)C(=O)N[C@H](C(=O)N[C@@H](CCC(N)=O)C(=O)N[C@H](C(=O)N[C@@H](CCCCN)C(=O)N[C@H](C(=O)N[C@H](C(=O)N[C@@H](CC(=O)O)C(N)=O)[C@@H](C)O)[C@@H](C)CC)[C@@H](C)O)[C@@H](C)CC)[C@@H](C)CC (H-HGDGSFTSELSTYK(Palmitoyl)DALAARDFIAWLIQTKITD-NH2)
- EC50 [6]: 0.17 nM
- EC50 [7]: 1 nM
- half-life [8]: 2.7 h

Compound: H-HGEGTFSSELATILDALAARDFIAWLIATKITDKKKKKK-NH2
- half-life [9]: 50 h
- Activity (Homo sapiens): <=86%

The remaining lines, values ahead:

- clearance [1]: < 0.3 mL/min/kg
- half-life [2]: > 30 h
- half-life [3]: > 30 h
Compound: CCCC[C@H](NC(=O)[C@H](CCC(=O)O)NC(=O)[C@H](CC(=O)O)NC(=O)[C@H](CO)NC(=O)[C@H](Cc1ccccc1)NC(=O)[C@H](CO)NC(=O)CNC(=O)[C@H](CC(=O)O)NC(=O)CNC(=O)[C@@H](N)Cc1cnc[nH]1)C(=O)N[C@H](Cc1ccccc1)C(=O)N[C@H](C(=O)N[C@H](C(=O)N[C@@H](CC(C)C)C(=O)N[C@@H](CC(=O)O)C(=O)N[C@@H](CC(C)C)C(=O)N[C@@H](CC(C)C)C(=O)N[C@@H](C)C(=O)N[C@@H](C)C(=O)N[C@@H](CCCNC(=N)N)C(=O)N[C@@H](CC(=O)O)C(=O)N[C@@H](Cc1ccccc1)C(=O)N[C@H](C(=O)N[C@@H](CC(N)=O)C(=O)N[C@@H](Cc1c[nH]c2ccccc12)C(=O)N[C@@H](CC(C)C)C(=O)N[C@H](C(=O)N[C@@H](CCC(N)=O)C(=O)N[C@H](C(=O)N[C@@H](CCCCN)C(=O)N[C@H](C(=O)N[C@H](C(=O)N[C@@H](CC(=O)O)C(N)=O)[C@@H](C)O)[C@@H](C)CC)[C@@H](C)O)[C@@H](C)CC)[C@@H](C)CC)[C@@H](C)CC)[C@@H](C)O [FE 203799] (H-HGDGSFSDE[Nle][dF]TILDLLAARDFINWLIQTKITD-NH2)

- t1/2 [5]: 165 h
Compound: SEMAGLUTIDE

- EC50 [6]: 0.07 nM
- EC50 [7]: 0.09 nM
- half-life [8]: 0.9 h
Compound: H-HGDGSFTSELSTYLDALAARDFIAWLIQTKITD-NH2

- half-life [10]: 2 h
Compound: CC[C@H](C)[C@H](NC(=O)[C@H](Cc1ccccc1)NC(=O)[C@H](CC(=O)O)NC(=O)[C@H](CCCNC(=N)N)NC(=O)[C@H](C)NC(=O)[C@H](C)NC(=O)[C@H](CC(C)C)NC(=O)[C@H](CC(N)=O)NC(=O)[C@H](CC(=O)O)NC(=O)[C@H](CC(C)C)NC(=O)[C@@H](NC(=O)[C@@H](NC(=O)[C@H](CC(N)=O)NC(=O)[C@H](CCSC)NC(=O)[C@H](CCC(=O)O)NC(=O)[C@H](CC(=O)O)NC(=O)[C@H](CO)NC(=O)[C@H](Cc1ccccc1)NC(=O)[C@H](CO)NC(=O)CNC(=O)[C@H](CC(=O)O)NC(=O)CNC(=O)[C@@H](N)Cc1c[nH]cn1)[C@@H](C)O)[C@@H](C)CC)C(=O)N[C@@H](CC(N)=O)C(=O)N[C@@H](Cc1c[nH]c2ccccc12)C(=O)N[C@@H](CC(C)C)C(=O)N[C@H](C(=O)N[C@@H](CCC(N)=O)C(=O)N[C@H](C(=O)N[C@@H](CCCCN)C(=O)N[C@H](C(=O)N[C@H](C(=O)N[C@@H](CC(=O)O)C(=O)O)[C@@H](C)O)[C@@H](C)CC)[C@@H](C)O)[C@@H](C)CC [TEDUGLUTIDE]
